According to publication PMC6034706 (ChemMedChem, 2017):
pEC50, pIC50, pKi: −log10 of the molar value. Where two headings read alike, the source gives them in different places.

What was measured:
E. coli = experiment: Cell viability assay, bacterial growth; format: cell-based; conditions: for growth inhibition activity on its own: wild-type E. coli, without amoxicillin; for relative percentage growth, E. coli, Amox (−): compound alone; for relative percentage growth, E. coli, Amox (−) / relative percentage growth, E. coli, Amox (+): relative to untreated cells; for relative percentage growth, E. coli, Amox (+): with 50 μM amoxicillin
VIM2 expressing E. coli = format: cell-based; conditions: for growth inhibition activity on its own: VIM2-expressing E. coli, without amoxicillin; for relative percentage growth, VIM2 expressing E. coli, Amox (+): with 50 μM amoxicillin; for relative percentage growth, VIM2 expressing E. coli, Amox (+) / relative percentage growth, VIM2 expressing E. coli, Amox (−): relative to untreated cells; for relative percentage growth, VIM2 expressing E. coli, Amox (−): compound alone
VIM2 [1] = target: T1, VIM2 (Escherichia coli, UniProt Q5U7L7); format: biochemical, P. aeruginosa; conditions: 50 μM compound, 5 nM VIM-2, 10 μM nitrocefin, 30 mins
VIM2 [2] = target: T1, VIM2; set-up: species or system P. aeruginosa; conditions: 6 and 12 μM inhibitor, 6 μM VIM-2, ICP-AES
VIM2 [3] = target: T1, VIM2; experiment: biochemical; format: biochemical, P. aeruginosa; conditions: for pIC50: 5 nM VIM-2, 10 μM nitrocefin
[4] = test system: O=C(Cc1cccs1)N[C@@H]1C(=O)N2C(C(=O)O)=C(/C=C/c3ccc([N+](=O)[O-])cc3[N+](=O)[O-])CS[C@H]12; experiment: purified protein, by the assay type; conditions: other: 50 mM potassium phosphate buffer, pH 7.0, room temperature
[5] = Plasma stability study, mouse plasma; format: in vitro ADME; conditions: 10 μM, 37 °C, pooled plasma
[6] = test system: human embryonic kidney HEK 293 cell lines; conditions: cited from earlier work
all eleven HDACs = conditions: earlier studies ref [10]; cited from earlier work
[7] = Plasma stability study, human plasma; format: in vitro ADME; conditions: 10 μM, 37 °C, pooled plasma
VIM-2 expressing E. coli = experiment: Half maximal effective concentration; format: cell-based; conditions: in the presence of 50 μM amoxicillin
[8] = competitive-inhibition fit, nitrocefin substrate

## C[C@H](CS)C(=O)N1CCC[C@H]1C(=O)O [L-Captopril]
E. coli
  growth inhibition activity on its own: moderate antibacterial activity
VIM2 expressing E. coli
  growth inhibition activity on its own: moderate antibacterial activity
VIM2 [1]
  % Inhibition at 50 μM: 98%
VIM2 [2]
  metal content of VIM-2 with increasing inhibitor concentration: relatively unaffected

## [Na+].[O-]n1ccccc1=S [Compound 2b]
VIM2 [3]
  pIC50: 6.04
VIM2 [3]; [8]
  pKi: 6.66
VIM2 [1]
  % Inhibition at 50 μM: 93%

## O=C(O)[C@H]1/C(=C/CO)O[C@@H]2CC(=O)N21 [Clavulanate]
VIM2 expressing E. coli; listed as clavulanic acid
  relative percentage growth, VIM2 expressing E. coli, Amox (+): ineffective
VIM2 [1]
  % Inhibition at 50 μM: 15%

## O=C(CCCCCCC(=O)Nc1ccccc1)NO [SAHA]
E. coli
  relative percentage growth, E. coli, Amox (−): 83%
  relative percentage growth, E. coli, Amox (+): 3.6%
VIM2 expressing E. coli
  relative percentage growth, VIM2 expressing E. coli, Amox (−): 79%
  relative percentage growth, VIM2 expressing E. coli, Amox (+): 60%

## VIM-2 (Escherichia coli)
[4]
  kcat: 212 s⁻¹

## CC1(C)S[C@@H]2[C@H](NC(=O)[C@H](N)c3ccc(O)cc3)C(=O)N2[C@H]1C(=O)O [Amox, amoxicillin]
E. coli; Escherichia coli, read-out: growth inhibition by amoxicillin alone
  inhibition at 50 µM: > 96%
E. coli
  relative percentage growth, E. coli, Amox (+): 3.6%
VIM2 expressing E. coli
  relative percentage growth, VIM2 expressing E. coli, Amox (+): 77%
VIM2 expressing E. coli; listed as amoxicillin
  relative percentage growth, VIM2 expressing E. coli, Amox (+): ineffective

## On1ccccc1=S [Compound 2, 1-Hydroxypyridine-2-thione]
VIM2 [3]
  pKi: 6.66
E. coli
  growth inhibition activity on its own: over 89%
VIM2 expressing E. coli
  growth inhibition activity on its own: over 89%

## O=C(O)c1cccc(=S)n1O [Compound 3, 1-hydroxypyridine-2(1H)-thiones-6-carboxylic acid]
[5]
  Mouse Plasma t1/2: 12.7 min
[6]
  CC50: 97400 nM
All eleven HDACs
  range of selectivity among HDACs: ~5000 fold
VIM2 [3]
  pKi: 10.89
  pIC50: 6.57
VIM2 [3]; LE = -1.38 log (Ki) / N, N = number of heavy atoms
  LE (ligand efficiency): 0.99
VIM2 [3]; [8]
  pKi: 7.89
E. coli
  relative percentage growth, E. coli, Amox (−): 77%
  growth inhibition activity on its own: moderate antibacterial activity
  relative percentage growth, E. coli, Amox (+): 3.6%
VIM2 expressing E. coli
  growth inhibition activity on its own: moderate antibacterial activity
  relative percentage growth, VIM2 expressing E. coli, Amox (−): 61%
  relative percentage growth, VIM2 expressing E. coli, Amox (+): 3.2%
[7]
  Human Plasma t1/2: 11.7 min
VIM2 [1]
  % Inhibition at 50 μM: 98%
VIM-2 expressing E. coli
  pEC50: 6.96

## O=C(O)CN(CCN(CC(=O)O)CC(=O)O)CC(=O)O [EDTA]
VIM2 [2]
  metal content of VIM-2 with increasing inhibitor concentration: inverse relationship

## C[C@]1(Cn2ccnn2)[C@H](C(=O)O)N2C(=O)C[C@H]2S1(=O)=O [Tazobactam]
VIM2 [1]
  % Inhibition at 50 μM: 25%
